Where a name gives a salt, the structure may show the parent alone.
Columns and labels:
[1] = biological target: T1, Erk2; assay: Cell-free kinase assay (ALPHA technology), Erk2-ALPHA; format: biochemical; conditions: 10 μM ATP, recombinant human kinase
T1 construct: in some cases as full-length kinases, in some cases as truncated fragments; purchased Upstate 14-173
Protocol: (§1) The inhibitory effect of the inventive compounds was tested on various human serine/threonine kinases, tyrosine kinases and lipid kinases in enzymatic assays. Recombinant human kinases, for example Erk2, PI3Kalpha, -beta, -gamma, -delta, p38alpha, p38gamma, Jnk1, Jnk2 and others were used, in some cases as full-length kinases, in some cases as truncated fragments—but at least consisting of the functional kinase domains. The commercial kinase proteins (Proqinase, Upstate) were used as recombinant fusion proteins with GST (glutathione S-transferase) tag or His tag. Depending on the substrate type, the different kinase reactions were quantified by means of suitable ALPHA™ beads (PerkinElmer).
(§2) The substrate testing on the Erk assay is described in detail below. Selected test results of the Erk2, PI3Kalpha assays are cited below. […] The kinase reaction was then stopped by adding 10 μl of the ALPHA bead mix (10 μg/ml, #6760617/PerkinElmer), pre-incubated with anti-phospho MBP antibody (320 μM, #05-429/Upstate), in 25 mM Tris, 200 mM NaCl, 100 mM EDTA and 0.3% BSA, and left to stand overnight. • b) PI3K-ALPHAs (e.g. PI3Kalpha): The test substance, 1 ng of PI3Kalpha (#14-602, Upstate), 100 μM ATP and 20 μM PIP2 substrate (#P4508, Echelon) on a 384-well Optiplate (Perkin Elmer) for 1 h in 50 mM Hepes, 50 mM NaCl, 5 mM MgCl2, 0.05% Chaps, 5 mM DTT at pH 7.4. Subsequently, the kinase reaction was stopped by adding the ALPHA bead mix (10 μg/ml, #6760603/PerkinElmer), preincubated with 1 nM GST:Grp1 fusion protein (Upstate) and 15 nM biotinylated PIP3 (#C-39B6/Echelon) in 50 mM Hepes, 50 mM NaCl, 50 mM EDTA and 0.1% BSA, and left to stand overnight.
(§3) The fluorescence was detected the next morning in a Fusion™ alpha instrument (Perkin Elmer).
(§4) The calculation of % inhibition values per substance concentration was done by means of the following formula from the raw data determined in the Fusion™ alpha:
(§5) The controls were each determined 8 times, the substance samples each twice. 0% control contained neither any ATP nor any substrate; the 100% control contained no test substance. The IC50 values were determined with GraphPadPrism.

[2] = biological target: T2, PI3Kalpha (Homo sapiens, UniProt P42336); assay: Cell-free kinase assay (ALPHA technology), PI3K-ALPHA; format: biochemical; conditions: 100 μM ATP, recombinant human kinase
T2 construct: in some cases as full-length kinases, in some cases as truncated fragments; purchased Upstate 14-602
Protocol: as §1, §2, §3, §4, §5

[3] = biological target: T3, p38alpha (Homo sapiens, UniProt Q16539); assay: Cell-free kinase assay (ALPHA technology), p38alpha; format: biochemical; conditions: at 10 μM or 100 μM* ATP, recombinant human kinase
T3 construct: in some cases as full-length kinases, in some cases as truncated fragments
Protocol: as §1, with “(PerkinElmer). […]” for “(PerkinElmer).”
as §3, §4, §5

[4] = test system: Jnk1 + Jnk2; assay: Cell-free kinase assay (ALPHA technology), Jnk1 + Jnk2; format: biochemical; conditions: at 10 μM or 100 μM* ATP, recombinant human kinases
Protocol: as §1, with “(PerkinElmer). […]” for “(PerkinElmer).”
as §3, §4, §5

T1 sequence (P63085 whole entry, the tested form may be a part): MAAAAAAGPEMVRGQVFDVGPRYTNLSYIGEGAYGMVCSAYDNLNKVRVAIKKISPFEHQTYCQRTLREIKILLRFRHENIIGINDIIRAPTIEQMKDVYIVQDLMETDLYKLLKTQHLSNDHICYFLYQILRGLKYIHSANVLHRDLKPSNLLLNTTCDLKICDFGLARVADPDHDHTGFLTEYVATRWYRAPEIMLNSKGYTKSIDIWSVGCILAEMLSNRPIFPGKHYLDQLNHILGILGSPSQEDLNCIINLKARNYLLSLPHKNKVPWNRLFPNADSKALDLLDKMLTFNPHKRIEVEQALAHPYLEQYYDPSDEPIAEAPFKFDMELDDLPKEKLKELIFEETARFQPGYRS
T2 sequence (P42336 whole entry, the tested form may be a part): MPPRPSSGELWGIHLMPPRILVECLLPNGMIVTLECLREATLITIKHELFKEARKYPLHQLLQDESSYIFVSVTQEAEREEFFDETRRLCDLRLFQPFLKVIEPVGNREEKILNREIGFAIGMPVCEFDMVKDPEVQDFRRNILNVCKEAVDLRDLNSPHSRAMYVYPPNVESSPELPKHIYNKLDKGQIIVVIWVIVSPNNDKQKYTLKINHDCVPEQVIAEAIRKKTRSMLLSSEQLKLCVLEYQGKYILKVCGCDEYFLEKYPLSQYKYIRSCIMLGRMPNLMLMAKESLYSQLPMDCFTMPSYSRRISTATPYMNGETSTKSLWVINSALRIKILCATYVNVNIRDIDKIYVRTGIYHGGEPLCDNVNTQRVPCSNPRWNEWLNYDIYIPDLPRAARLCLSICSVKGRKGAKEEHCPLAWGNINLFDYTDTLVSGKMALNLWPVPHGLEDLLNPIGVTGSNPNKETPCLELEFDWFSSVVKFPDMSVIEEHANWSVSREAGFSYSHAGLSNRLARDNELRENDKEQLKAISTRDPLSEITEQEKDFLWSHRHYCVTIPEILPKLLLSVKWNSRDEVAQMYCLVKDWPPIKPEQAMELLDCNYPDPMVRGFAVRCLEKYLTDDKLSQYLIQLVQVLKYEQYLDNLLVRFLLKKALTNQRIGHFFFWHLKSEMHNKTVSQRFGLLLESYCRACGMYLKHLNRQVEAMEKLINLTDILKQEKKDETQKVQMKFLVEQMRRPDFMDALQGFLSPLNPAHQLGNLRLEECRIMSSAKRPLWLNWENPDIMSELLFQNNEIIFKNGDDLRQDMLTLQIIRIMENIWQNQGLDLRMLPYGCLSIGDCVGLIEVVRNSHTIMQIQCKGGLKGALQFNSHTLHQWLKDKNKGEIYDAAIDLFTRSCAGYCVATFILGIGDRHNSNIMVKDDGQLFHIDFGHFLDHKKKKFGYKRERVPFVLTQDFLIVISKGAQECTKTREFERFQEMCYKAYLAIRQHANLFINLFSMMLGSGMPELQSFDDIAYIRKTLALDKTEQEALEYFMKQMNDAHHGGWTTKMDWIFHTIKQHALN
T2 sequence (P27986 whole entry partner, the tested form may be a part): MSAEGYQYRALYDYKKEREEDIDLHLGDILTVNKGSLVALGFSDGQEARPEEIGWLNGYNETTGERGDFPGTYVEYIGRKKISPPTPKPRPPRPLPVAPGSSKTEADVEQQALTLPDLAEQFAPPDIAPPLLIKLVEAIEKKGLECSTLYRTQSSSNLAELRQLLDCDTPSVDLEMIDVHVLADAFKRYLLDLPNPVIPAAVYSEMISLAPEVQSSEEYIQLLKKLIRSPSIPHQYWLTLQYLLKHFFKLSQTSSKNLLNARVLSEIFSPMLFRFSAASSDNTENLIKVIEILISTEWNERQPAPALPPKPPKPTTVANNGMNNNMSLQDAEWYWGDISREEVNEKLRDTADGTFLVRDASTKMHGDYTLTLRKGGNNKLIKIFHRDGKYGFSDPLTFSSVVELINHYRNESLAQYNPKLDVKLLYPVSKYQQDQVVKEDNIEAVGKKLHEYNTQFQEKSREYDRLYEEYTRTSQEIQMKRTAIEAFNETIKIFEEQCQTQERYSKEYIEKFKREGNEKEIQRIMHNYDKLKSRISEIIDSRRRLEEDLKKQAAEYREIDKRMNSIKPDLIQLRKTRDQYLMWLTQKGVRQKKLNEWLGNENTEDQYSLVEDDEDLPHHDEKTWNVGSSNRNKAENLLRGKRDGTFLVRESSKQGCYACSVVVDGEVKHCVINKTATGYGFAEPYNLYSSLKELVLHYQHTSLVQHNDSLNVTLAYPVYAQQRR
T3 sequence (Q16539 whole entry, the tested form may be a part): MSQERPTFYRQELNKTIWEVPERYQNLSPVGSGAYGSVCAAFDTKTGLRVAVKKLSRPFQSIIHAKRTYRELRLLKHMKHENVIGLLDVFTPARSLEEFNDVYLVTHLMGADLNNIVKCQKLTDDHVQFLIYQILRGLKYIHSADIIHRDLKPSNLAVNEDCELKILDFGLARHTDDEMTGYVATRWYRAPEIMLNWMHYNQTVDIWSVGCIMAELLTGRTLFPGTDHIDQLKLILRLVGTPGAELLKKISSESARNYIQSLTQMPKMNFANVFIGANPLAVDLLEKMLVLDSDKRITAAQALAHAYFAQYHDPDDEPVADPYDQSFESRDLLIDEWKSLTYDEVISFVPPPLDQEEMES

With `CCNC(=O)Nc1ccc2ncc(-c3cccc([Si](C)(C)C)c3)nc2n1` the melting point was 224 to 228 °C.
`COCCOC(=O)Oc1ccc(-c2cnc3ccc(NC(=O)NCCCCO)nc3n2)cc1` (as salt: hydrochloride) [Compound 58, 4-{6-[3-(4-Hydroxybutyl)urea]pyrido[2,3-b]pyrazin-3-yl}phenyl 2-methoxyethyl carbonate hydrochloride] showed a melting point of 165 to 168 °C.
With `CCNC(=O)Nc1ccc2ncc(C#Cc3ccccc3)nc2n1` [Compound 1, 1-Ethyl-3-(3-phenylethynylpyrido[2,3-b]pyrazin-6-yl)urea] the melting point was 236 to 238 °C (dec.).
In the case of `CCNC(=O)Nc1ccc2ncc(C#Cc3ccsc3)nc2n1` [Compound 2, 1-Ethyl-3-(3-thiophen-3-ylethynylpyrido[2,3-b]pyrazin-6-yl)urea], the melting point is reported as 239 to 242 °C (dec.).
In the case of `CCNC(=O)Nc1ccc2ncc(C#CC3CC3)nc2n1` [Compound 3, 1-(3-Cyclopropylethynylpyrido[2,3-b]pyrazin-6-yl)-3-ethylurea], the melting point is reported as 227 to 228 °C (dec.).
In the case of `CCNC(=O)Nc1ccc2ncc(/C=C/C3CCCCC3)nc2n1` [Compound 5, 1-[3-((E)-2-Cyclohexylvinyl)pyrido[2,3-b]pyrazin-6-yl]-3-ethylurea], the melting point is reported as 202 to 204 °C (dec.).
With `CCNC(=O)Nc1ccc2ncc(/C=C/COC)nc2n1` [Compound 6, 1-Ethyl-3-[3-((E)-3-methoxypropenyl)pyrido[2,3-b]pyrazin-6-yl]urea] the IC50 [1] was 2.4 µM and the IC50 [2] was 21.3 µM.
In the case of `CONC(=O)Nc1ccc2ncc(-c3ccccc3)nc2n1` [Compound 7, 1-Methoxy-3-(3-phenylpyrido[2,3-b]pyrazin-6-yl)urea], the IC50 [3] is reported as > 100 µM and the IC50 [4] is reported as 11.4 µM.
With `C=CCONC(=O)Nc1ccc2ncc(-c3ccccc3)nc2n1` [Compound 8, 1-Allyloxy-3-(3-phenylpyrido[2,3-b]pyrazin-6-yl)urea] the IC50 [3] was > 100 µM and the IC50 [4] was 19.4 µM.
With `CCNC(=O)Nc1ccc2ncc(-c3ccc(OC(=O)Oc4ccccc4)cc3)nc2n1` [Compound 11, 4-[6-(3-Ethylurea)pyrido[2,3-b]pyrazin-3-yl]phenyl phenyl carbonate] the IC50 [4] was > 100 µM.
Compound `CCNC(=O)Nc1ccc2ncc(-c3ccc(OC(=O)N(CC)CC)cc3)nc2n1` [Compound 12, 4-[6-(3-Ethylurea)pyrido[2,3-b]pyrazin-3-yl]phenyl diethylcarbamate] has an IC50 [3] of 8.8 µM and an IC50 [4] of 0.637 µM.
With `CCNC(=O)Nc1ccc2ncc(-c3ccc(OC(=O)/C=C/c4ccccc4)cc3)nc2n1` [Compound 13, 4-[6-(3-Ethylurea)pyrido[2,3-b]pyrazin-3-yl]phenyl (E)-3-phenylacrylate] the melting point was 236 to 238 °C, the IC50 [1] was 0.64 µM and the IC50 [4] was > 100 µM.
For `CCNC(=O)Nc1ccc2ncc(-c3ccc(OC(=O)N(C)C)cc3)nc2n1` [Compound 19, 4-[6-(3-Ethylurea)pyrido[2,3-b]pyrazin-3-yl]phenyl dimethylcarbamate], the melting point was > 230 °C (dec.), the IC50 [1] was 3.9 µM and the IC50 [2] was 2.3 µM. It also gave an IC50 [4] of 10.1 µM.
For `CCNC(=O)Nc1ccc2ncc(-c3ccc(NC(=O)OC(C)(C)C)cc3)nc2n1` [Compound 21, tert-Butyl {4-[6-(3-ethylurea)pyrido[2,3-b]pyrazin-3-yl]phenyl}carbamate], the melting point was 281 to 283 °C, the IC50 [1] was > 100 µM and the IC50 [2] was 1.2 µM. For the same compound, the IC50 [4] was > 31.6 µM.
For `CCNC(=O)Nc1ccc2ncc(-c3ccc(NC(=O)OCCOC)cc3)nc2n1` [Compound 22, 2-Methoxyethyl {4-[6-(3-ethylurea)pyrido[2,3-b]pyrazin-3-yl]phenyl}carbamate], the melting point was 249 to 251 °C, the IC50 [1] was > 100 µM and the IC50 [2] was 1.2 µM. The IC50 [4] was > 31.6 µM.
In the case of `CCNC(=O)Nc1ccc(-c2cnc3ccc(NC(=O)NCC)nc3n2)cn1` [Compound 25, 1-Ethyl-3-{3-[6-(3-ethylurea)pyridin-3-yl]pyrido[2,3-b]pyrazin-6-yl}urea], the IC50 [1] is reported as 3.4 µM, the IC50 [2] is reported as 4.4 µM and the IC50 [4] is reported as 24.2 µM.
In the case of `CCNC(=O)Nc1ccc2ncc(CCc3ccc(F)cc3)nc2n1` [Compound 26, 1-Ethyl-3-{3-[2-(4-fluorophenyl)ethyl]pyrido[2,3-b]pyrazin-6-yl}urea], the melting point is reported as 207 to 209 °C.
Compound `CCNC(=O)Nc1ccc2ncc(/C=C/c3ccc(F)cc3)nc2n1` [Compound 27, 1-Ethyl-3-{3-[(E)-2-(4-fluorophenyl)vinyl]pyrido[2,3-b]pyrazin-6-yl}urea] has a melting point of 217 to 219 °C.
In the case of `CCNC(=O)Nc1ccc2ncc(-c3ccc(CN4CCOCC4)cc3)nc2n1` [Compound 28, 1-Ethyl-3-[3-(4-morpholin-4-ylmethylphenyl)pyrido[2,3-b]pyrazin-6-yl]urea], the IC50 [3] is reported as > 100 µM, the IC50 [1] is reported as 0.364 µM and the IC50 [2] is reported as 1.8 µM. For the same compound, the IC50 [4] was 5 µM.
For `CCNC(=O)Nc1ccc2ncc(-c3ccc(OCCOCCOC)cc3)nc2n1` [Compound 29, 1-Ethyl-3-(3-{4-[2-(2-methoxyethoxy)ethoxy]phenyl}pyrido[2,3-b]pyrazin-6-yl)urea], the IC50 [3] was > 100 µM, the IC50 [1] was 0.396 µM and the IC50 [2] was 2.3 µM. For the same compound, the IC50 [4] was 24.2 µM.
With `CCNC(=O)Nc1ccc2ncc(-c3ccc(NC(=O)COCCOC)cc3)nc2n1` [Compound 30, N-{4-[6-(3-Ethylurea)pyrido[2,3-b]pyrazin-3-yl]phenyl}-2-(2-methoxyethoxy)acetamide] the melting point was 212 to 215 °C, the IC50 [1] was > 31.6 µM and the IC50 [2] was 0.749 µM. For the same compound, the IC50 [4] was 13.8 µM.
In the case of `CCOP(=O)(CCCCNC(=O)Nc1ccc2ncc(-c3ccc(O)c(OC)c3)nc2n1)OCC` [Compound 44, Diethyl (4-{3-[3-(4-hydroxy-3-methoxyphenyl)pyrido[2,3-b]pyrazin-6-yl]urea}butyl)phosphonate], the IC50 [1] is reported as 2.8 µM, the IC50 [2] is reported as 10.7 µM and the IC50 [4] is reported as 8.4 µM.
Work on `COc1cc(-c2cnc3ccc(NC(=O)NCCCCP(=O)(O)O)nc3n2)ccc1O` [Compound 45, (4-{3-[3-(4-Hydroxy-3-methoxyphenyl)pyrido[2,3-b]pyrazin-6-yl]urea}butyl)phosphonic acid] yielded an IC50 [1] of 0.243 µM, an IC50 [2] of 12.5 µM and an IC50 [4] of 0.974 µM.
`CCNC(=O)Nc1ccc2ncc(Nc3ccc(C4CCCCC4)cc3)nc2n1` [Compound 47, 1-[3-(4-Cyclohexylphenylamino)pyrido[2,3-b]pyrazin-6-yl]-3-ethylurea] showed a melting point of 246 to 248 °C.
In the case of `CCNC(=O)Nc1ccc2ncc(Nc3ccc(S(C)(=O)=O)cc3)nc2n1` [Compound 48, 1-Ethyl-3-[3-(4-methanesulphonylphenylamino)pyrido[2,3-b]pyrazin-6-yl]urea], the IC50 [3] is reported as > 100 µM, the melting point is reported as 275 to 280 °C and the IC50 [1] is reported as > 100 µM. The IC50 [2] was 1.1 µM and the IC50 [4] was > 31.6 µM.
Compound `CCNC(=O)Nc1ccc2ncc(Nc3ccc(-c4ccsc4)cc3)nc2n1` [Compound 52, 1-Ethyl-3-[3-(4-thiophen-3-ylphenylamino)pyrido[2,3-b]pyrazin-6-yl]urea] has a melting point of 264 to 267 °C.
`CCNC(=O)Nc1ccc2ncc(Nc3ccc(NC(C)=O)cc3)nc2n1` [Compound 53, N-{4-[6-(3-Ethylurea)pyrido[2,3-b]pyrazin-3-ylamino]phenyl}acetamide] gave an IC50 [1] of 16.5 µM, an IC50 [2] of 0.677 µM and an IC50 [4] of 20.4 µM.
Compound `CCNC(=O)Nc1ccc2ncc(-c3ccc(OC(=O)OCCOC)cc3)nc2n1` [Compound 55, 4-[6-(3-Ethylurea)pyrido[2,3-b]pyrazin-3-yl]phenyl 2-methoxyethyl carbonate hydrochloride] has an IC50 [1] of 0.812 µM, an IC50 ([2]; hydrochloride) of 3.6 µM and an IC50 ([4]; hydrochloride) of 2.9 µM.
In the case of `COCCOC(=O)Oc1ccc(-c2cnc3ccc(NC(=O)NCCCCO)nc3n2)cc1` [Compound 58, 4-{6-[3-(4-Hydroxybutyl)urea]pyrido[2,3-b]pyrazin-3-yl}phenyl 2-methoxyethyl carbonate hydrochloride], the IC50 [1] is reported as 0.763 µM, the IC50 [2] is reported as 4.3 µM and the IC50 [4] is reported as 2.5 µM.

Source: patent US8217042B2, “Pyridopyrazines and their use as modulators of kinases” (Zentaris GmbH, priority 2005, dated 2012)
